Test results reported in the supplement of paper PMC11451515.

System: P12-Ichikawa
Test: cell viability relative to DMSO control; higher = less cytotoxic
Conditions: 48 h
Procedure, shortened: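 NOMO1, SEM and P12-Ichikawa leukemia cells spent at least four passages adapting to each medium before use. They were seeded at 500 cells/well (NOMO1, SEM) or 1000 cells/well (P12-Ichikawa) in 5 μl in 1536-well plates and pin-dosed with library compounds in DMSO at 11 threefold steps from 47 μM down to 0.79 nM. After 48 h at 37°C, CellTiter-Glo One luminescence was read. Viability is reported as a percentage of the DMSO wells on each plate, with cell-free wells as background.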

[1] = HPLM + 10% dialyzed FBS, 0.000781 µM
[2] = HPLM + 10% dialyzed FBS, 0.00234 µM
[3] = HPLM + 10% dialyzed FBS, 0.00702 µM
[4] = HPLM + 10% dialyzed FBS, 0.0211 µM
[5] = HPLM + 10% dialyzed FBS, 0.0632 µM
[6] = HPLM + 10% dialyzed FBS, 0.19 µM
[7] = HPLM + 10% dialyzed FBS, 0.569 µM
[8] = HPLM + 10% dialyzed FBS, 1.71 µM
[9] = HPLM + 10% dialyzed FBS, 5.12 µM
[10] = HPLM + 10% dialyzed FBS, 15.4 µM
[11] = HPLM + 10% dialyzed FBS, 46.1 µM
[12] = RPMI 5 mM glucose + 10% FBS, 0.000781 µM
[13] = RPMI 5 mM glucose + 10% FBS, 0.00234 µM
[14] = RPMI 5 mM glucose + 10% FBS, 0.00702 µM
[15] = RPMI 5 mM glucose + 10% FBS, 0.0211 µM
[16] = RPMI 5 mM glucose + 10% FBS, 0.0632 µM
[17] = RPMI 5 mM glucose + 10% FBS, 0.19 µM
[18] = RPMI 5 mM glucose + 10% FBS, 0.569 µM
[19] = RPMI 5 mM glucose + 10% FBS, 1.71 µM
[20] = RPMI 5 mM glucose + 10% FBS, 5.12 µM
[21] = RPMI 5 mM glucose + 10% FBS, 15.4 µM
[22] = RPMI 5 mM glucose + 10% FBS, 46.1 µM
[23] = RPMI 5 mM glucose + 10% dialyzed FBS, 0.000781 µM
[24] = RPMI 5 mM glucose + 10% dialyzed FBS, 0.00234 µM
[25] = RPMI 5 mM glucose + 10% dialyzed FBS, 0.00702 µM
[26] = RPMI 5 mM glucose + 10% dialyzed FBS, 0.0211 µM
[27] = RPMI 5 mM glucose + 10% dialyzed FBS, 0.0632 µM
[28] = RPMI 5 mM glucose + 10% dialyzed FBS, 0.19 µM
[29] = RPMI 5 mM glucose + 10% dialyzed FBS, 0.569 µM
[30] = RPMI 5 mM glucose + 10% dialyzed FBS, 1.71 µM
[31] = RPMI 5 mM glucose + 10% dialyzed FBS, 5.12 µM
[32] = RPMI 5 mM glucose + 10% dialyzed FBS, 15.4 µM
[33] = RPMI 5 mM glucose + 10% dialyzed FBS, 46.1 µM

SMILES | cell viability [1] [%] | cell viability [2] [%] | cell viability [3] [%] | cell viability [4] [%] | cell viability [5] [%] | cell viability [6] [%] | cell viability [7] [%] | cell viability [8] [%] | cell viability [9] [%] | cell viability [10] [%] | cell viability [11] [%] | cell viability [12] [%] | cell viability [13] [%] | cell viability [14] [%] | cell viability [15] [%] | cell viability [16] [%] | cell viability [17] [%] | cell viability [18] [%] | cell viability [19] [%] | cell viability [20] [%] | cell viability [21] [%] | cell viability [22] [%] | cell viability [23] [%] | cell viability [24] [%] | cell viability [25] [%] | cell viability [26] [%] | cell viability [27] [%] | cell viability [28] [%] | cell viability [29] [%] | cell viability [30] [%] | cell viability [31] [%] | cell viability [32] [%] | cell viability [33] [%]
CC(O)C1C2C(C)\C(=C(/N2C1=O)C(O)=O)SC3CNC(C3)C(=O)N(C)C (stereo not given) | 84 | 82.1 | 86.8 | 88.3 | 93.2 | 92.9 | 99.6 | 96.5 | 90.4 | 92.8 | 88.1 | 77.1 | 78.2 | 79.4 | 81.7 | 82.3 | 85.5 | 82.7 | 77.6 | 84.7 | 88.2 | 85.6 | 85.7 | 80 | 85.8 | 88 | 88.8 | 89.2 | 86.2 | 86.2 | 86.5 | 88.2 | 95.5
Cn1cc(C[C@@H](N)C(=O)O)c2ccccc21 | 103 | 109 | 106 | 104 | 105 | 109 | 105 | 102 | 100 | 98.2 | 97.2 | 98.8 | 107 | 104 | 101 | 99.6 | 106 | 107 | 97.1 | 99.8 | 100 | 87.1 | 91.3 | 101 | 100 | 98.3 | 105 | 106 | 96.5 | 100 | 95.8 | 93 | 91.9
C[S+](=O)([O-])c1ccc(Oc2cc(F)cc(C#N)c2)c2c1[C@H](O)C(F)(F)C2 | 92.8 | 96.9 | 102 | 100 | 102 | 107 | 103 | 104 | 110 | 109 | 96.3 | 91.5 | 100 | 103 | 117 | 108 | 107 | 112 | 105 | 105 | 106 | 97.8 | 92.6 | 105 | 108 | 110 | 115 | 110 | 104 | 110 | 110 | 104 | 106
Cc1c[nH]c(-c2cnc(NCCNc3ccc(C#N)cn3)nc2-c2ccc(Cl)cc2Cl)n1 | 75.2 | 83.3 | 80.6 | 88.1 | 87.7 | 88.9 | 88.3 | 94.3 | 91.2 | 91.1 | 16.4 | 67.6 | 82.5 | 77.7 | 78.7 | 79.9 | 80.6 | 78.9 | 83.5 | 75 | 89.1 | 24.8 | 75.1 | 85.3 | 80.2 | 80 | 81 | 82.2 | 78.8 | 80.6 | 84.1 | 92.9 | 29.9
CC(C)C[C@H](NC(=O)[C@@H](O)[C@H](N)Cc1ccccc1)C(=O)O | – | – | – | – | – | – | – | – | – | – | – | – | – | – | – | – | – | – | – | – | – | – | 116 | 130 | 124 | 130 | 130 | 111 | 120 | 115 | 123 | 104 | 32
C=CCc1ccc(O)c(-c2ccc(O)c(CC=C)c2)c1 | 112 | 113 | – | 113 | 119 | 28.9 | 13.7 | – | 9.66 | 11.3 | 18.2 | 109 | 110 | 110 | 113 | 120 | 120 | 118 | 17.5 | 14.9 | 13.7 | 11 | 105 | 116 | 113 | 115 | 122 | 113 | 63.9 | 25.6 | 18.4 | 21.3 | 21.2
NC(=O)NO | 85.4 | 102 | 100 | 100 | 94.3 | 99.6 | 102 | 104 | 72.4 | 28.8 | 2.02 | 83.7 | 103 | 91.4 | 90.8 | 98.7 | 98.5 | 91.2 | 90.9 | 77.1 | 43.6 | 0.136 | 88.4 | 88.3 | 87.7 | 91.4 | 92.2 | 96 | 94.1 | 87.2 | 65.2 | 22.9 | 2.61
CCOC(=O)\C1=C\[C@@H](OC(CC)CC)[C@H](NC(C)=O)[C@@H](N)C1 | 98.9 | 95 | 92.3 | 97.3 | 92.3 | 103 | 96.9 | 96 | 99.6 | 100 | 94.9 | 86 | 95.3 | 97.4 | 95.8 | 94.3 | 102 | 95.7 | 88.5 | 102 | 100 | 99.9 | 87.7 | 79.3 | 86.5 | 94.8 | 90.7 | 81.4 | 88.8 | 86.2 | 87.4 | 84.8 | 99.3
O=C1NC(=O)/C(=C/c2ccc(-c3ccc(F)cc3O)o2)S1 | 113 | 117 | 116 | 121 | 112 | 116 | 108 | 107 | 97.7 | 97.9 | 89.7 | 116 | 117 | 112 | 112 | 112 | 111 | 102 | 90.4 | 90.1 | 80 | 65.7 | 115 | 120 | 121 | 117 | 117 | 121 | 117 | 88.2 | 89.5 | 84.3 | 72.4
C[C@](N)(Cc1ccc(O)c(O)c1)C(=O)O | 95.1 | 90.6 | 91.4 | 96.8 | 102 | 87.7 | 77 | 90.4 | 87.8 | 81.2 | 84.8 | 90.8 | 93.3 | 87.2 | 89.3 | 93.3 | 92.9 | 83.2 | 81.1 | 81 | 80.8 | 84.9 | 85.1 | 85.1 | 83.5 | 88.2 | 89.3 | 82.1 | 82.5 | 81.8 | 76.1 | 81.8 | 81.4
CCOc1cc(CC(=O)N[C@@H](CC(C)C)c2ccccc2N2CCCCC2)ccc1C(=O)O | 113 | 124 | 116 | 129 | 130 | 125 | 129 | 111 | 12.2 | 13.3 | 13.4 | 110 | 130 | 119 | 137 | 124 | 127 | 135 | 120 | 16.4 | 17.6 | 19.6 | – | – | – | – | – | – | – | – | – | – | –
CCOc1ccc(Cc2cc([C@@H]3O[C@H](CO)[C@@H](O)[C@H](O)[C@H]3O)ccc2Cl)cc1 | 123 | 124 | 120 | 84.8 | 125 | 134 | 129 | 123 | 127 | 126 | 123 | – | – | – | – | – | – | – | – | – | – | – | – | – | – | – | – | – | – | – | – | – | –
C[C@H]1COC/2=C1/C(=O)C(=O)C3=C4CCCC(C)(C)C4=CC=C23 | 112 | 118 | 121 | 129 | 127 | 134 | 137 | 124 | 129 | 118 | 94 | – | – | – | – | – | – | – | – | – | – | – | – | – | – | – | – | – | – | – | – | – | –
